Measurements published in PubChem BioAssay (NCI).
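In this assay, cells in 96-well plates receive the compound at five concentrations for 48 hours. Endpoints are linearly interpolated between the surrounding concentrations. GI50 marks 50% less growth. TGI: concentration producing complete growth inhibition.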

What follows are compounds tested on COLO 205 colon (assay: DTP human tumour cell line panel, 48 h).

SMILES | TGI | GI50
Cn1c(=O)c(-c2ccccc2)c(N=[N+]=[N-])c2ccccc21 | > 100 µM | 
CCC(/C=C/C1OC(=O)C=CC1C)=C\C(C)C/C=C/C(C)=C/C(C)C(=O)C(C)C(O)C(C)C/C(C)=C/C(=O)O (stereo not drawn) |  | 7.52 pM
CC1(C)N=C(N)N=C(N)N1c1ccc(CCc2ccccc2)cc1 | 24.1 µM | 
CN(C)CCCN1CCC2(CCC(C(C)(C)C)CC2)CC1 | 3.04 µM | 
Cc1[nH]nc(C(F)(F)F)c1N=NN1CCOCC1 | 11.9 µM | 
S=C(S)NCNC(=S)S.[Zn+2] | > 100 µM | 
CC(OC(C)(C)C)[C@H](NC(=O)OCC(Cl)(Cl)Cl)C(=O)O (stereo partly drawn) | > 100 µM | 
O=C(O)CCC(NC(=O)c1ccc(Nc2nc3cc(C(F)(F)F)ccc3nc2-c2ccccc2)cc1)C(=O)O (stereo not drawn) | > 100 µM | 
c1ccc(CCNc2ccccn2)nc1 | > 100 µM | 
NCc1ccccc1-c1c2nc(c(-c3ccccc3CN)c3ccc([nH]3)c(-c3ccccc3CN)c3nc(c(-c4ccccc4CN)c4ccc1[nH]4)C=C3)C=C2 | 97.7 µM | 

Each compound was assayed on DU-145 prostate (assay: DTP human tumour cell line panel, 48 h).

SMILES | TGI | GI50
Cn1c(=O)c(-c2ccccc2)c(N=[N+]=[N-])c2ccccc21 | > 100 µM | 
CN(C)CCCN1CCC2(CCC(C(C)(C)C)CC2)CC1 | 19.3 µM | 
Cc1[nH]nc(C(F)(F)F)c1N=NN1CCOCC1 | 13.4 µM | 
C=C(C)[C@@H]1CC[C@]2(C(=O)NC3CCCCC3)CC[C@]3(C)[C@H](CC[C@@H]4[C@@]5(C)CCCNC(C)(C)[C@@H]5CC[C@]43C)[C@@H]12 | 3.63 µM | 1.91 µM
S=C(S)NCNC(=S)S.[Zn+2] | > 100 µM | 
CC1(CCOCc2ccccc2)NC(=O)NC1=O (stereo not drawn) | > 100 µM | 
O=C(Cn1c[n+](CC(=O)c2ccc(-c3ccccc3)cc2)c2ccccc21)Nc1cccc2cccnc12 | 5.71 µM | 2.22 µM
c1ccc(CCNc2ccccn2)nc1 | > 100 µM | 

These compounds were tested on HCT-116 colon (assay: DTP human tumour cell line panel, 48 h).

SMILES | TGI | GI50
Cn1c(=O)c(-c2ccccc2)c(N=[N+]=[N-])c2ccccc21 | > 100 µM | 
CCC(/C=C/C1OC(=O)C=CC1C)=C\C(C)C/C=C/C(C)=C/C(C)C(=O)C(C)C(O)C(C)C/C(C)=C/C(=O)O (stereo not drawn) |  | < 1 pM
CC1(C)N=C(N)N=C(N)N1c1ccc(CCc2ccccc2)cc1 | > 100 µM | 
CN(C)CCCN1CCC2(CCC(C(C)(C)C)CC2)CC1 | 3.19 µM | 
Cc1[nH]nc(C(F)(F)F)c1N=NN1CCOCC1 | 6.12 µM | 
S=C(S)NCNC(=S)S.[Zn+2] | > 100 µM | 
CC1(CCOCc2ccccc2)NC(=O)NC1=O (stereo not drawn) | > 100 µM | 
CC(OC(C)(C)C)[C@H](NC(=O)OCC(Cl)(Cl)Cl)C(=O)O (stereo partly drawn) | > 100 µM | 
O=C(O)CCC(NC(=O)c1ccc(Nc2nc3cc(C(F)(F)F)ccc3nc2-c2ccccc2)cc1)C(=O)O (stereo not drawn) | > 100 µM | 
c1ccc(CCNc2ccccn2)nc1 | > 100 µM | 
NCc1ccccc1-c1c2nc(c(-c3ccccc3CN)c3ccc([nH]3)c(-c3ccccc3CN)c3nc(c(-c4ccccc4CN)c4ccc1[nH]4)C=C3)C=C2 | 32.5 µM | 

Each compound was assayed on K-562 leukemia (assay: DTP human tumour cell line panel, 48 h).

SMILES | TGI | GI50
Cn1c(=O)c(-c2ccccc2)c(N=[N+]=[N-])c2ccccc21 | > 100 µM | 
CCC(/C=C/C1OC(=O)C=CC1C)=C\C(C)C/C=C/C(C)=C/C(C)C(=O)C(C)C(O)C(C)C/C(C)=C/C(=O)O (stereo not drawn) |  | < 0.001 nM
CC1(C)N=C(N)N=C(N)N1c1ccc(CCc2ccccc2)cc1 | > 100 µM | 
CN(C)CCCN1CCC2(CCC(C(C)(C)C)CC2)CC1 | 0.962 µM | 
Cc1[nH]nc(C(F)(F)F)c1N=NN1CCOCC1 | 2.4 µM | 
S=C(S)NCNC(=S)S.[Zn+2] | > 100 µM | 
CC1(CCOCc2ccccc2)NC(=O)NC1=O (stereo not drawn) | > 100 µM | 
O=C(Cn1c[n+](CC(=O)c2ccc(-c3ccccc3)cc2)c2ccccc21)Nc1cccc2cccnc12 | > 100 µM | 639 nM
CC(OC(C)(C)C)[C@H](NC(=O)OCC(Cl)(Cl)Cl)C(=O)O (stereo partly drawn) | > 100 µM | 
O=C(O)CCC(NC(=O)c1ccc(Nc2nc3cc(C(F)(F)F)ccc3nc2-c2ccccc2)cc1)C(=O)O (stereo not drawn) | > 100 µM | 
NCc1ccccc1-c1c2nc(c(-c3ccccc3CN)c3ccc([nH]3)c(-c3ccccc3CN)c3nc(c(-c4ccccc4CN)c4ccc1[nH]4)C=C3)C=C2 | 35.5 µM | 

The compounds below were run on KM12 colon (assay: DTP human tumour cell line panel, 48 h).

SMILES | TGI | GI50
Cn1c(=O)c(-c2ccccc2)c(N=[N+]=[N-])c2ccccc21 | > 100 µM | 
CC1(C)N=C(N)N=C(N)N1c1ccc(CCc2ccccc2)cc1 | > 43.1 µM | 
CN(C)CCCN1CCC2(CCC(C(C)(C)C)CC2)CC1 | 6.18 µM | 
Cc1[nH]nc(C(F)(F)F)c1N=NN1CCOCC1 | 21.9 µM | 
C=C(C)[C@@H]1CC[C@]2(C(=O)NC3CCCCC3)CC[C@]3(C)[C@H](CC[C@@H]4[C@@]5(C)CCCNC(C)(C)[C@@H]5CC[C@]43C)[C@@H]12 | 3.64 µM | 1.92 µM
S=C(S)NCNC(=S)S.[Zn+2] | > 100 µM | 
CC1(CCOCc2ccccc2)NC(=O)NC1=O (stereo not drawn) | > 100 µM | 
CC(OC(C)(C)C)[C@H](NC(=O)OCC(Cl)(Cl)Cl)C(=O)O (stereo partly drawn) | > 100 µM | 
O=C(O)CCC(NC(=O)c1ccc(Nc2nc3cc(C(F)(F)F)ccc3nc2-c2ccccc2)cc1)C(=O)O (stereo not drawn) | > 100 µM | 
c1ccc(CCNc2ccccn2)nc1 | > 100 µM | 
NCc1ccccc1-c1c2nc(c(-c3ccccc3CN)c3ccc([nH]3)c(-c3ccccc3CN)c3nc(c(-c4ccccc4CN)c4ccc1[nH]4)C=C3)C=C2 | 50.7 µM | 

Each compound was assayed on MDA-MB-435 (assay: DTP human tumour cell line panel, 48 h).

SMILES | TGI | GI50
Cn1c(=O)c(-c2ccccc2)c(N=[N+]=[N-])c2ccccc21 | > 100 µM | 
CCC(/C=C/C1OC(=O)C=CC1C)=C\C(C)C/C=C/C(C)=C/C(C)C(=O)C(C)C(O)C(C)C/C(C)=C/C(=O)O (stereo not drawn) | 2.64e-05 µM | 
CN(C)CCCN1CCC2(CCC(C(C)(C)C)CC2)CC1 | 1.19 µM | 
Cc1[nH]nc(C(F)(F)F)c1N=NN1CCOCC1 | 26 µM | 
C=C(C)[C@@H]1CC[C@]2(C(=O)NC3CCCCC3)CC[C@]3(C)[C@H](CC[C@@H]4[C@@]5(C)CCCNC(C)(C)[C@@H]5CC[C@]43C)[C@@H]12 | 3.15 µM | 1.7 µM
S=C(S)NCNC(=S)S.[Zn+2] | > 100 µM | 
CC1(CCOCc2ccccc2)NC(=O)NC1=O (stereo not drawn) | > 100 µM | 
c1ccc(CCNc2ccccn2)nc1 | > 100 µM | 

The compounds below were run on NCI/ADR-RES ovarian (assay: DTP human tumour cell line panel, 48 h).

SMILES | TGI | GI50
Cn1c(=O)c(-c2ccccc2)c(N=[N+]=[N-])c2ccccc21 | > 100 µM | 
CCC(/C=C/C1OC(=O)C=CC1C)=C\C(C)C/C=C/C(C)=C/C(C)C(=O)C(C)C(O)C(C)C/C(C)=C/C(=O)O (stereo not drawn) | 4.15 µM | 0.701 µM
CC1(C)N=C(N)N=C(N)N1c1ccc(CCc2ccccc2)cc1 | > 100 µM | 
CN(C)CCCN1CCC2(CCC(C(C)(C)C)CC2)CC1 | 19.5 µM | 
Cc1[nH]nc(C(F)(F)F)c1N=NN1CCOCC1 | 22.1 µM | 
S=C(S)NCNC(=S)S.[Zn+2] | > 100 µM | 
CC1(CCOCc2ccccc2)NC(=O)NC1=O (stereo not drawn) | > 100 µM | 
O=C(Cn1c[n+](CC(=O)c2ccc(-c3ccccc3)cc2)c2ccccc21)Nc1cccc2cccnc12 | 64.8 µM | 18.7 µM
O=C(O)CCC(NC(=O)c1ccc(Nc2nc3cc(C(F)(F)F)ccc3nc2-c2ccccc2)cc1)C(=O)O (stereo not drawn) | > 100 µM | 
c1ccc(CCNc2ccccn2)nc1 | > 100 µM | 

What follows are compounds tested on RXF 393 renal (assay: DTP human tumour cell line panel, 48 h).

SMILES | TGI | GI50
Cn1c(=O)c(-c2ccccc2)c(N=[N+]=[N-])c2ccccc21 | > 100 µM | 
CCC(/C=C/C1OC(=O)C=CC1C)=C\C(C)C/C=C/C(C)=C/C(C)C(=O)C(C)C(O)C(C)C/C(C)=C/C(=O)O (stereo not drawn) | 3.56 µM | < 1 pM
CC1(C)N=C(N)N=C(N)N1c1ccc(CCc2ccccc2)cc1 | > 100 µM | 
CN(C)CCCN1CCC2(CCC(C(C)(C)C)CC2)CC1 | 4.13 µM | 
Cc1[nH]nc(C(F)(F)F)c1N=NN1CCOCC1 | 25.1 µM | 
S=C(S)NCNC(=S)S.[Zn+2] | > 100 µM | 
CC1(CCOCc2ccccc2)NC(=O)NC1=O (stereo not drawn) | > 100 µM | 
CC(OC(C)(C)C)[C@H](NC(=O)OCC(Cl)(Cl)Cl)C(=O)O (stereo partly drawn) | > 100 µM | 
O=C(O)CCC(NC(=O)c1ccc(Nc2nc3cc(C(F)(F)F)ccc3nc2-c2ccccc2)cc1)C(=O)O (stereo not drawn) | 94.8 µM | 
c1ccc(CCNc2ccccn2)nc1 | > 100 µM | 
NCc1ccccc1-c1c2nc(c(-c3ccccc3CN)c3ccc([nH]3)c(-c3ccccc3CN)c3nc(c(-c4ccccc4CN)c4ccc1[nH]4)C=C3)C=C2 | 43 µM | 

What follows are compounds tested on SN12C renal (assay: DTP human tumour cell line panel, 48 h).

SMILES | TGI | GI50
Cn1c(=O)c(-c2ccccc2)c(N=[N+]=[N-])c2ccccc21 | > 100 µM | 
CCC(/C=C/C1OC(=O)C=CC1C)=C\C(C)C/C=C/C(C)=C/C(C)C(=O)C(C)C(O)C(C)C/C(C)=C/C(=O)O (stereo not drawn) | 12 µM | 0.0696 nM
CC1(C)N=C(N)N=C(N)N1c1ccc(CCc2ccccc2)cc1 | > 78.1 µM | 
CN(C)CCCN1CCC2(CCC(C(C)(C)C)CC2)CC1 | 20.6 µM | 
Cc1[nH]nc(C(F)(F)F)c1N=NN1CCOCC1 | 30.8 µM | 
S=C(S)NCNC(=S)S.[Zn+2] | > 100 µM | 
CC1(CCOCc2ccccc2)NC(=O)NC1=O (stereo not drawn) | > 100 µM | 
CC(OC(C)(C)C)[C@H](NC(=O)OCC(Cl)(Cl)Cl)C(=O)O (stereo partly drawn) | > 100 µM | 
O=C(O)CCC(NC(=O)c1ccc(Nc2nc3cc(C(F)(F)F)ccc3nc2-c2ccccc2)cc1)C(=O)O (stereo not drawn) | > 100 µM | 
c1ccc(CCNc2ccccn2)nc1 | > 100 µM | 
NCc1ccccc1-c1c2nc(c(-c3ccccc3CN)c3ccc([nH]3)c(-c3ccccc3CN)c3nc(c(-c4ccccc4CN)c4ccc1[nH]4)C=C3)C=C2 | 39.8 µM | 

The compounds below were run on SNB-75 CNS (assay: DTP human tumour cell line panel, 48 h).

SMILES | TGI | GI50
Cn1c(=O)c(-c2ccccc2)c(N=[N+]=[N-])c2ccccc21 | > 100 µM | 
CCC(/C=C/C1OC(=O)C=CC1C)=C\C(C)C/C=C/C(C)=C/C(C)C(=O)C(C)C(O)C(C)C/C(C)=C/C(=O)O (stereo not drawn) | 7.17 µM | 
CC1(C)N=C(N)N=C(N)N1c1ccc(CCc2ccccc2)cc1 | > 94.3 µM | 
CN(C)CCCN1CCC2(CCC(C(C)(C)C)CC2)CC1 | 4.11 µM | 
Cc1[nH]nc(C(F)(F)F)c1N=NN1CCOCC1 | 26.7 µM | 
C=C(C)[C@@H]1CC[C@]2(C(=O)NC3CCCCC3)CC[C@]3(C)[C@H](CC[C@@H]4[C@@]5(C)CCCNC(C)(C)[C@@H]5CC[C@]43C)[C@@H]12 | 3.05 µM | 1.48 µM
S=C(S)NCNC(=S)S.[Zn+2] | > 100 µM | 
O=C(Cn1c[n+](CC(=O)c2ccc(-c3ccccc3)cc2)c2ccccc21)Nc1cccc2cccnc12 | 4.03 µM | 1.65 µM
CC(OC(C)(C)C)[C@H](NC(=O)OCC(Cl)(Cl)Cl)C(=O)O (stereo partly drawn) | > 100 µM | 
O=C(O)CCC(NC(=O)c1ccc(Nc2nc3cc(C(F)(F)F)ccc3nc2-c2ccccc2)cc1)C(=O)O (stereo not drawn) | > 100 µM | 
NCc1ccccc1-c1c2nc(c(-c3ccccc3CN)c3ccc([nH]3)c(-c3ccccc3CN)c3nc(c(-c4ccccc4CN)c4ccc1[nH]4)C=C3)C=C2 | 24.7 µM | 
